Values joined by “and” are separate entries in the source; they are usually repeats but may differ in a detail not shown here. Identical values can stand only once.
Experiments:
Vero E6 cells = test: Cytotoxicity, WST-1 cell proliferation assay; format: cell-based, African green monkey; settings: for concentration at which cytotoxic: Vero E6 cells
SARS-CoV-2 [1] = format: cell-based
[2] = biological target: SARS-CoV-2 main protease Mpro (Severe acute respiratory syndrome coronavirus 2, UniProt P0DTD1); test: cell-based; settings: IC50 in inhibiting Mpro
SARS-CoV-2 [3] = test: Viral particle inactivation / time-of-addition, plaque assay on Vero E6 cells; format: cell-based
SARS-CoV-2 viral RNA = test: Viral RNA quantification by qRT-PCR in Vero cells and supernatant; format: cell-based; settings: 5 μM
SARS-CoV-2 [4] = format: cell-based; settings: virus treated with 5 μM for 1 hour, MOI = 100, Vero E6
SARS-CoV-2 [5] = test: Plaque assay on A549^ACE2 cells with ethacridine-treated virus; format: cell-based; settings: 5 uM, 1 hr pre-incubation
SARS-CoV-2 [6] = format: cell-based; settings: 5 μM, 48 hours, anti-N and anti-S staining
[7] = 20 mg/kg, i.p. injection; cited from earlier work
[8] = rat, mice and rabbits; cited from earlier work

verteporfin
concentration at which cytotoxic (Vero E6 cells): 5 to 13 µM

COc1ccc2c(O[C@@H]3C[C@H]4C(=O)N[C@]5(C(=O)NS(=O)(=O)C6CC6)C[C@H]5/C=C\CCCCN(C)C(=O)[C@@H]4C3)cc(-c3nc(C(C)C)cs3)nc2c1C [Simeprevir, simeprevir]
reduction in viral titer (SARS-CoV-2 [1]): ~ 4 log

CC(=O)[C@@]1(O)CC[C@H]2[C@@H]3CCC4=CC(=O)CC[C@]4(C)[C@H]3CC[C@@]21C [Hydroxyprogesterone, hydroxyprogesterone]
reduction in viral titer (SARS-CoV-2 [1]): ~ 1 log

ivermectin
concentration at which cytotoxic (Vero E6 cells): 5 to 13 µM

CCC(CC)COC(=O)[C@H](C)N[P@](=O)(OC[C@H]1O[C@@](C#N)(c2ccc3c(N)ncnn23)[C@H](O)[C@@H]1O)Oc1ccccc1 [Remdesivir, remdesivir]
reduction in viral titer (SARS-CoV-2 [1]): ~ 4 log

O=c1c2ccccc2[se]n1-c1ccccc1 [ebselen]
reduction in viral titer (SARS-CoV-2 [1]): ~ 2 log

C[C@@H](NCCCc1cccc(C(F)(F)F)c1)c1cccc2ccccc12 [Cinacalcet, cinacalcet]
reduction in viral titer (SARS-CoV-2 [1]): ~ 1 log

CCOc1ccc2nc3cc(N)ccc3c(N)c2c1 [Ethacridine, ethacridine]
IC50 [2]: ~3.54 µM and ~3.5 µM | reduction in viral titer (SARS-CoV-2 [1]): 5 – 6 log | cell toxicity (Vero E6 cells; Vero E6 (Fig. 3e)): very little cell toxicity | reduction in viral titer, DMSO + Eth. (SARS-CoV-2 [3]; 5 μM, drug added after viral entry): 3 – 4 logs | reduction in viral titer, Eth. + Eth. (SARS-CoV-2 [3]; 5 μM, drug present continuously prior to plaque assay, versus DMSO + DMSO): 3 – 4 logs | reduction in viral titer, Eth. + Eth. (SARS-CoV-2 [3]; 5 μM, plaque assay): 2400 fold | reduction in infectivity, Eth. [1 hr] (SARS-CoV-2 [3]; virus pre-incubated with drug 1 hr, plaque assay without drug): 3 – 4 logs | change of viral RNA (vRNA) levels, DMSO + Eth. (SARS-CoV-2 viral RNA; drug added after binding and entry, supernatant and cells): no change | reduction in vRNA copies, Eth. + Eth. (SARS-CoV-2 viral RNA; drug present continuously, supernatant and within the cells): 4 – 5 fold | detectable anti-N and anti-S fluorescence on cells (SARS-CoV-2 [4]): dramatic reduction | infectivity of drug-treated virus on A549^ACE2 cells (SARS-CoV-2 [5]): dramatic decrease in infectivity | proportion of infected primary nasal cells (SARS-CoV-2 [6]): dramatically decreased | toxicity in mice [7]: no toxicity | toxicity in animal models [8]: non-toxic

Source: article PMC7605555 (bioRxiv, 2020)
